Measured values: patent US4169197A, “6-Deoxyneamines aminoglycoside compounds” (The Upjohn Company, priority 1978, dated 1979)
≈ marks a conversion by molar mass, not a printed value. Where two headings read alike, the source gives them in different places.

Tests used:
Type in all cases: cell-based
P. rettgeri UC 339 = experiment: standard microplate test in BHI Agar; settings: Providencia rettgeri, UC339, 20 h
Summary of the method: (§1)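 End points are read after 20 hours of incubation at 37°. The medium is Brain Heart Infusion agar in a standard microplate format. Compounds are tested at 1 mg./ml. and at dilutions of that level.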

S. faecalis UC 694 = experiment: standard microplate test in BHI Agar; settings: Enterococcus faecalis, UC694, 20 h
Summary of the method: as §1

S. aureus UC 76 = experiment: standard microplate test in BHI Agar; settings: Staphylococcus aureus, UC76, 20 h
Summary of the method: as §1

S. flexneri UC 143 = experiment: standard microplate test in BHI Agar; settings: Shigella flexneri, UC143, 37°, 20 hours
Summary of the method: as §1

S. pyogenes UC 152 = experiment: standard microplate test in BHI Agar; settings: Streptococcus pyogenes, UC152, 20 h
Summary of the method: as §1

S. schottmuelleri UC 126 [1] = experiment: standard microplate test in BHI Agar; settings: 37°, 20 hours
Summary of the method: as §1

Ps. aeruginosa UC 95 [2] = experiment: standard microplate test in BHI Agar; settings: Pseudomonas aeruginosa, UC95, 20 h
Summary of the method: as §1

K. pneumoniae UC 58 = experiment: standard microplate test in BHI Agar; settings: Klebsiella pneumoniae, UC58, 20 h
Summary of the method: as §1

S. typhi UC 215 = experiment: standard microplate test in BHI Agar; settings: Salmonella enterica, BHI Agar, 37°, 20 hours
Summary of the method: as §1

E. coli UC 45 = experiment: standard microplate test in BHI Agar; settings: Escherichia coli, UC45, 37°, 20 hours, Table III, read-out: Minimum Inhibitory Concentration
Summary of the method: as §1

P. vulgaris UC 93 [3] = experiment: standard microplate test in BHI Agar; settings: Proteus vulgaris, UC93, 20 h
Summary of the method: as §1

P. mirabilis UC 6671 = experiment: standard microplate test in BHI Agar; settings: Proteus mirabilis, UC6671, 20 h
Summary of the method: as §1

S. marcescens UC 131 = experiment: standard microplate test in BHI Agar; settings: Serratia marcescens, UC131, 20 h
Summary of the method: as §1

B. subtilis UC 564 = experiment: standard disc plate assay, zones of inhibition; settings: Bacillus subtilis, 12.5 mm paper discs; for zone of inhibition at 100 µg/mL: UC564, read-out: Zones of Inhibition, 0.1 mg/ml; for zone of inhibition at 1000 µg/mL: UC564, read-out: Zones of Inhibition, 1 mg/ml
Summary of the method: (§2)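 In vitro testing: standard disc plate assay. Discs of 12.5 mm paper carry the compound; inhibition zones are measured.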

S. schottmuelleri UC 126 [4] = experiment: standard disc plate assay, zones of inhibition; settings: 12.5 mm paper discs; for zone of inhibition at 100 µg/mL: 0.1 mg/ml; for zone of inhibition at 1000 µg/mL: 1 mg/ml
Summary of the method: as §2

B. cereus UC 3145 = experiment: standard disc plate assay, zones of inhibition; settings: Bacillus cereus, 12.5 mm paper discs; for zone of inhibition at 100 µg/mL: UC3145, read-out: Zones of Inhibition, 0.1 mg/ml; for zone of inhibition at 1000 µg/mL: UC3145, read-out: Zones of Inhibition, 1 mg/ml
Summary of the method: as §2

Ps. aeruginosa UC 95 [5] = experiment: standard disc plate assay, zones of inhibition; settings: Pseudomonas aeruginosa, UC95, read-out: Zones of Inhibition, 1 mg/ml, 12.5 mm paper discs
Summary of the method: as §2

K. pneumoniae UC 57 = experiment: standard disc plate assay, zones of inhibition; settings: Klebsiella pneumoniae, 12.5 mm paper discs; for zone of inhibition at 100 µg/mL: UC57, read-out: Zones of Inhibition, 0.1 mg/ml; for zone of inhibition at 1000 µg/mL: UC57, read-out: Zones of Inhibition, 1 mg/ml
Summary of the method: as §2

S. aureus UC 80 = experiment: standard disc plate assay, zones of inhibition; settings: Staphylococcus aureus, 12.5 mm paper discs; for zone of inhibition at 100 µg/mL: UC80, read-out: Zones of Inhibition, 0.1 mg/ml; for zone of inhibition at 1000 µg/mL: UC80, read-out: Zones of Inhibition, 1 mg/ml
Summary of the method: as §2

E. coli UC 51 = experiment: standard disc plate assay, zones of inhibition; settings: Escherichia coli, 12.5 mm paper discs; for zone of inhibition at 100 µg/mL: UC51, read-out: Zones of Inhibition, 0.1 mg/ml; for zone of inhibition at 1000 µg/mL: UC51, read-out: Zones of Inhibition, 1 mg/ml
Summary of the method: as §2

S. lutea UC 130 = experiment: standard disc plate assay, zones of inhibition
Summary of the method: as §2

P. vulgaris UC 93 [6] = experiment: standard disc plate assay, zones of inhibition; settings: Proteus vulgaris, 12.5 mm paper discs; for zone of inhibition at 100 µg/mL: UC93, read-out: Zones of Inhibition, 0.1 mg/ml; for zone of inhibition at 1000 µg/mL: UC93, read-out: Zones of Inhibition, 1 mg/ml
Summary of the method: as §2

S. gallinarum UC 265 = experiment: standard disc plate assay, zones of inhibition; settings: for Zones of Inhibition: 12.5 mm paper discs, Table II
Summary of the method: as §2

[7] = read-out: Minimal Inhibitory Concentration
[8] = read-out: Minimum Inhibitory Concentration
[9] = Table III, read-out: Minimum Inhibitory Concentration
[10] = Table IV, read-out: Minimal Inhibitory Concentration
[11] = Salmonella enterica, read-out: Zones of Inhibition

NC[C@H]1O[C@H](O[C@H]2[C@H](O)[C@@H](O)[C@H](N)C[C@@H]2N)[C@H](N)[C@@H](O)[C@@H]1O [Neamine]
MIC (P. rettgeri UC 339; [7]): > 500 µg/mL | MIC (P. rettgeri UC 339; [8]): 250 µg/mL (≈ 776 µM) | MIC (S. faecalis UC 694; [7]): > 500 µg/mL | MIC (S. faecalis UC 694; [8]): > 500 µg/mL | MIC (S. aureus UC 76; [7]): 7.8 µg/mL (≈ 24.2 µM) | MIC (S. aureus UC 76; [8]): 3.9 µg/mL (≈ 12.1 µM) | MIC (S. flexneri UC 143; [9]): 62.5 µg/mL (≈ 194 µM) | MIC (S. flexneri UC 143; [10]): 125 µg/mL (≈ 388 µM) | MIC (S. pyogenes UC 152; [7]): 7.8 µg/mL (≈ 24.2 µM) | MIC (S. pyogenes UC 152; [8]): 7.8 µg/mL (≈ 24.2 µM) | MIC (S. schottmuelleri UC 126 [1]; [9]): 31.2 µg/mL (≈ 96.8 µM) | MIC (S. schottmuelleri UC 126 [1]; [10]): 15.6 µg/mL (≈ 48.4 µM) | MIC (Ps. aeruginosa UC 95 [2]; [7]): > 500 µg/mL | MIC (Ps. aeruginosa UC 95 [2]; [8]): > 500 µg/mL | MIC (K. pneumoniae UC 58; [7]): 7.8 µg/mL (≈ 24.2 µM) | MIC (K. pneumoniae UC 58; [8]): 15.6 µg/mL (≈ 48.4 µM) | MIC (S. typhi UC 215; [9]): 15.6 µg/mL (≈ 48.4 µM) | MIC (S. typhi UC 215; [10]): 31.2 µg/mL (≈ 96.8 µM) | MIC (E. coli UC 45): 62.5 µg/mL (≈ 194 µM) | MIC (P. vulgaris UC 93 [3]; [7]): 62.5 µg/mL (≈ 194 µM) | MIC (P. vulgaris UC 93 [3]; [8]): 62.5 µg/mL (≈ 194 µM) | MIC (P. mirabilis UC 6671; [7]): 250 µg/mL (≈ 776 µM) | MIC (P. mirabilis UC 6671; [8]): 62.5 µg/mL (≈ 194 µM) | MIC (S. marcescens UC 131; [7]): 250 µg/mL (≈ 776 µM) | MIC (S. marcescens UC 131; [8]): 250 µg/mL (≈ 776 µM) | zone of inhibition at 100 µg/mL (B. subtilis UC 564; Table I): 30 mm | zone of inhibition at 100 µg/mL (B. subtilis UC 564; Table II): 28 mm | zone of inhibition at 1000 µg/mL (B. subtilis UC 564; Table I): 39 mm | zone of inhibition at 1000 µg/mL (B. subtilis UC 564; Table II): 37 mm | zone of inhibition at 100 µg/mL (S. schottmuelleri UC 126 [4]; Table I): 16 mm | zone of inhibition at 100 µg/mL (S. schottmuelleri UC 126 [4]; Table II): 15 mm | zone of inhibition at 1000 µg/mL (S. schottmuelleri UC 126 [4]; Table I): 24 mm | zone of inhibition at 1000 µg/mL (S. schottmuelleri UC 126 [4]; Table II): 23 mm | zone of inhibition at 100 µg/mL (B. cereus UC 3145; Table I): 15 mm | zone of inhibition at 100 µg/mL (B. cereus UC 3145; Table II): 15 mm | zone of inhibition at 1000 µg/mL (B. cereus UC 3145; Table I): 24 mm | zone of inhibition at 1000 µg/mL (B. cereus UC 3145; Table II): 23 mm | zone of inhibition at 1000 µg/mL (Ps. aeruginosa UC 95 [5]; Table I): 17 mm | zone of inhibition at 1000 µg/mL (Ps. aeruginosa UC 95 [5]; Table II): 18 mm | zone of inhibition at 100 µg/mL (K. pneumoniae UC 57; Table I): 27 mm | zone of inhibition at 100 µg/mL (K. pneumoniae UC 57; Table II): 26 mm | zone of inhibition at 1000 µg/mL (K. pneumoniae UC 57; Table I): 34 mm | zone of inhibition at 1000 µg/mL (K. pneumoniae UC 57; Table II): 32 mm | zone of inhibition at 100 µg/mL (S. aureus UC 80; Table I): 20 mm | zone of inhibition at 100 µg/mL (S. aureus UC 80; Table II): 18 mm | zone of inhibition at 1000 µg/mL (S. aureus UC 80; Table I): 29 mm | zone of inhibition at 1000 µg/mL (S. aureus UC 80; Table II): 26 mm | zone of inhibition at 100 µg/mL (E. coli UC 51; Table I): 19 mm | zone of inhibition at 100 µg/mL (E. coli UC 51; Table II): 18 mm | zone of inhibition at 1000 µg/mL (E. coli UC 51; Table I): 27 mm | zone of inhibition at 1000 µg/mL (E. coli UC 51; Table II): 25 mm | Zones of Inhibition (S. lutea UC 130; 1 mg/ml, 12.5 mm paper discs, Table II): 17 mm | zone of inhibition at 1000 µg/mL (S. lutea UC 130; Micrococcus luteus, UC130, read-out: Zones of Inhibition): 17 mm | zone of inhibition at 100 µg/mL (P. vulgaris UC 93 [6]; Table I): 18 mm | zone of inhibition at 100 µg/mL (P. vulgaris UC 93 [6]; Table II): 15 mm | zone of inhibition at 1000 µg/mL (P. vulgaris UC 93 [6]; Table I): 27 mm | zone of inhibition at 1000 µg/mL (P. vulgaris UC 93 [6]; Table II): 28 mm | Zones of Inhibition (S. gallinarum UC 265; 0.1 mg/ml): 19 mm | Zones of Inhibition (S. gallinarum UC 265; 1 mg/ml): 29 mm | zone of inhibition at 100 µg/mL (S. gallinarum UC 265; [11]): 19 mm | zone of inhibition at 1000 µg/mL (S. gallinarum UC 265; [11]): 29 mm
